Changes are numbered by the printed parent chain.
Experiments:
Assay type in all cases: cell-based
Conditions in all cases: 24 hours after administration
[1] = biological target: T1, androgen receptor (AR) (Homo sapiens, UniProt P10275, T878A); test: AR degradation in LNCAP cells (Western blot)
T1 construct: endogenous in cells; host or cells: LNCAP
T1 sequence (P10275 1-920 T878A): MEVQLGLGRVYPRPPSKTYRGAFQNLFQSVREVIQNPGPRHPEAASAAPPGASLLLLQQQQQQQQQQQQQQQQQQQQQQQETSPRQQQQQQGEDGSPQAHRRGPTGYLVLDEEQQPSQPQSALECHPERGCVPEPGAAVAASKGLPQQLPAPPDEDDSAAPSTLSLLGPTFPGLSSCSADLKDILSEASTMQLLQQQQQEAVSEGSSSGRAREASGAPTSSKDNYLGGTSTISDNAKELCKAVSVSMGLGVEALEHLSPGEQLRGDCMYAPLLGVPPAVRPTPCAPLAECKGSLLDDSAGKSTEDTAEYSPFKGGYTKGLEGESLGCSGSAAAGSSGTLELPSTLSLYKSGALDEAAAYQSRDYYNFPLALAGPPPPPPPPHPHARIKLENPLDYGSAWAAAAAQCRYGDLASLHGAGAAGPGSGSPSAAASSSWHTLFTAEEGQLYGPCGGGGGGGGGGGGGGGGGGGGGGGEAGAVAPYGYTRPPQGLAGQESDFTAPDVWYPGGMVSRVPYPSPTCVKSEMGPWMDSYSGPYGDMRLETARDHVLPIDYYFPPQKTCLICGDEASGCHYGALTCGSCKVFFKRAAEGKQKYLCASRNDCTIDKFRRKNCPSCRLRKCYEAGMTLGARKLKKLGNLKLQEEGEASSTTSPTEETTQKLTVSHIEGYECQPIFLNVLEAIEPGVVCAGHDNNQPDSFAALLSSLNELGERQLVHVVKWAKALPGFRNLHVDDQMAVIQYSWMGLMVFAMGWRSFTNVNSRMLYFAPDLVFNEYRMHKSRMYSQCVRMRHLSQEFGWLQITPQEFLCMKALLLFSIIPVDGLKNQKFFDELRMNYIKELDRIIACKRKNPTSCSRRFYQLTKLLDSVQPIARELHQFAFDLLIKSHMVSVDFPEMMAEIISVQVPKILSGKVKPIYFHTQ
Procedure, shortened: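 Cells plated in RPMI with 10% FBS overnight, then treated with compound at various concentrations (from 1000× DMSO stocks) for 24 h at 37 °C. AR level measured by Western blot with GAPDH as loading control, infrared-fluorescent detection and band quantification; DC50 is concentration giving 50% AR degradation.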

[2] = biological target: T2, androgen receptor (AR) (Homo sapiens, UniProt P10275); test: AR degradation in VCAP cells (Western blot)
T2 construct: endogenous in cells; host or cells: VCAP
T2 sequence (P10275 1-920): T1 sequence (P10275 1-920 T878A) with A878T
Procedure: (§1) LNCAP, VCAP and 22Rv1 cells were plated in 24-well plates at 1.5×10E5 cells/well in the RPMI growth medium containing 10% FBS and 1% Penicillin Streptomycin, and then incubated at 37° C. overnight. The following day, the test compound was administered to the cells by using 1000× compound stock solution prepared in DMSO at various concentrations. After administration of the compound, the cells were then incubated at 37° C. for 24 hours. Upon completion, the cells were washed with PBS and protein was collected in Laemmli sample buffer (1×; VWR International). Proteins in cell lysate were separated by SDS-PAGE and transferred to Odyssey nitrocellulose membranes (Licor) with iblot® dry blotting transfer system (ThermoFisher). Nonspecific binding was blocked by incubating membranes with Intercept Blocking Buffer (Licor) for 1 hour at room temperature with gentle shaking. The membranes were then incubated overnight at 4° C. with Primary antibodies rabbit anti-AR (1:1,000, Cell Signaling, 5153) and mouse anti-GAPDH (1:5,000, Santa Cruz Biotechnology, sc-47724) diluted in Intercept Blocking Buffer containing 0.1% Tween 20. After washing 3 times with TBS-T, the membranes were incubated with IRDye® […] goat anti-mouse IgG (1:20,000, Licor) or IRDye® […] goat anti-rabbit IgG (1:20,000, Licor) for 1 hour. After TBS-T washes, membranes were rinsed in TBS and scanned on Odyssey® CLx Imaging System (Licor). The bands were quantified using Image Studio™ Software (Licor).
(§2) Tables 5 and 6 summarize the androgen receptor (AR) degradative activity of exemplary compounds in LNCAP, VCAP and 22Rv1 cell lines 24 hours after administration. DC50: compound concentration needed for 50% target protein degradation.

[3] = tested on: androgen receptor (AR); test: AR degradation in 22Rv1 cells (Western blot)
Procedure: as §1, §2

Measured: DC50

(2R,5S)-4-(4-cyano-3-methoxyphenyl)-N-(4-(4-((4-(2-((S)-2,6-dioxopiperidin-3-yl)-1-oxoisoindolin-5-yl)piperazin-1-yl)methyl)piperidin-1-yl)-3-fluorophenyl)-2,5-dimethylpiperazine-1-carboxamide [Compound 1-53]
≤ 10 nM: all assays above
